Test results: the supplement of paper PMC8882468

Key:
Assay in all cases: CTG-3D luminescence at 96 h relative to day-0 seeding control (ratio to day 0); higher = more growth / less cytotoxicity; PDxO 3D drug screen, 96 h, CTG-3D normalised to day-0 seeding control.
[1] = test system: HCI-001 (organoid from a triple-negative breast cancer xenograft)
[2] = test system: HCI-003.E2 (organoid from an ER-positive breast cancer xenograft)
[3] = test system: HCI-012 (organoid from a breast cancer xenograft)
[4] = test system: HCI-024 (organoid from a breast cancer xenograft)
[5] = test system: HCI-027 (organoid from a triple-negative breast cancer xenograft)

Cc1cc(Nc2ncc(Cl)c(Nc3ccccc3S(=O)(=O)C(C)C)n2)c(OC(C)C)cc1C1CCNCC1 [ceritinib]
CTG-3D luminescence at 96 h
Settings | 12.5 pM | 0.00025 µM | 0.005 µM | 0.1 µM | 1 µM | 10 µM | 100 µM | 625 fM
[1], days in culture: 240 | 1.82 | 1.14 | 1.07 | 1.15 | 0.858 | 0.121 | -0.00201 | 1.26
[1], days in culture: 260 | 2.25 | 1.05 | 1.67 | 1.28 | 1.21 | 0.018 | -0.00298 | 1.55
[1], days in culture: 269 | 1.92 | 1.77 | 1.43 | 1.82 | 1.23 | -0.0266 | -0.0412 | 1.9
[1], days in culture: 327 | 1.58 | 1.14 | 1.9 | 1.78 | 1.24 | 0.164 | -0.00344 | 1.92
[1], days in culture: 346 | 1.59 | 1.27 | 1.16 | 1.24 | 1.19 | 0.45 | -0.00215 | 1.39
[1], days in culture: 364 | 1.52 | 1.11 | 1.4 | 0.954 | 1.13 | 0.315 | -0.00387 | 1.85
[3], days in culture: 143 | 2.17 | 1.8 | 1.89 | 2.08 | 1.92 | 0.0093 | -0.00596 | 2.32
[3], days in culture: 162 | 2.32 | 2.04 | 1.68 | 2.9 | 2.19 | 0.0143 | -0.00682 | 2.82
[3], days in culture: 201 | 2.62 | 2.34 | 1.57 | 1.57 | 2.44 | 0.00702 | -0.00682 | 1.54
[4], days in culture: 105 | 1.05 | 1.3 | 1.22 | 1.29 | 1.11 | 0.00435 | -0.0037 | 1.39
[4], days in culture: 122 | 1.49 | 2.05 | 1.23 | 1.88 | 1.16 | 0.00674 | -0.00377 | 2.07
[4], days in culture: 163 | 2.38 | 2.03 | 1.59 | 2.47 | 1.74 | 0.107 | -0.00554 | 2.78
[5], days in culture: 176 | 2.26 | 1.27 | 2.21 | 1.68 | 1.81 | 0.00647 | -0.00642 | 2.34
[5], days in culture: 194 | 1.42 | 1.26 | 1.1 | 1.96 | 1.8 | 0.0105 | -0.00633 | 1.39
[5], days in culture: 201 | 2.21 | 1.72 | 1.65 | 1.66 | 1.47 | 0.0089 | -0.00463 | 1.31

[2]
Settings | CTG-3D luminescence at 96 h
12.5 pM | 2.16
0.00025 µM | 2.04
0.005 µM | 1.82
0.1 µM | 2.06
1 µM | 2.05
10 µM | 0.388
100 µM | 0.0194
625 fM | 2.21

C[C@]12CC[C@@H]3c4ccc(O)cc4C[C@@H](CCCCCCCCC[S+]([O-])CCCC(F)(F)C(F)(F)F)[C@H]3[C@@H]1CC[C@@H]2O (some centres undefined) [fulvestrant]
CTG-3D luminescence at 96 h
Settings | 12.5 pM | 0.00025 µM | 0.005 µM | 0.1 µM | 1 µM | 10 µM | 100 µM | 625 fM
[1], days in culture: 240 | 1.44 | 1.04 | 1.03 | 0.906 | 1.68 | 1.06 | 1.55 | 1.65
[1], days in culture: 260 | 2.56 | 1.23 | 1.9 | 1.86 | 1.59 | 1.46 | 1.1 | 1.68
[1], days in culture: 269 | 1.44 | 1.59 | 1.41 | 1.34 | 1.45 | 1.7 | 1.69 | 1.43
[1], days in culture: 327 | 1.73 | 1.68 | 2.18 | 1.97 | 1.64 | 1.23 | 1.65 | 2.08
[1], days in culture: 346 | 1.34 | 1.3 | 1.11 | 1.33 | 1.42 | 1.16 | 1.38 | 1.11
[1], days in culture: 364 | 1.63 | 1.34 | 1.37 | 0.918 | 0.954 | 1.28 | 1.02 | 1.75
[3], days in culture: 143 | 2.28 | 2.33 | 2.23 | 2.41 | 2.43 | 2.43 | 2.25 | 1.92
[3], days in culture: 162 | 2.65 | 2.28 | 1.8 | 3.05 | 2.77 | 3.17 | 2.71 | 2.92
[3], days in culture: 201 | 2.77 | 2.3 | 1.52 | 1.85 | 2.21 | 1.48 | 2.1 | 1.53
[4], days in culture: 105 | 1.45 | 1.55 | 1.32 | 1.36 | 1.34 | 2.02 | 1.67 | 1.87
[4], days in culture: 122 | 2.08 | 2.51 | 2.43 | 1.84 | 1.77 | 2.65 | 1.86 | 2.53
[4], days in culture: 163 | 1.83 | 1.9 | 1.55 | 2.47 | 2.05 | 1.88 | 2.09 | 1.91
[5], days in culture: 176 | 2.05 | 1.67 | 2.89 | 2.3 | 2.57 | 1.77 | 2.18 | 2.36
[5], days in culture: 194 | 1.74 | 1.82 | 1.53 | 1.78 | 2.32 | 2.05 | 2.15 | 1.71
[5], days in culture: 201 | 2.63 | 2.77 | 2.87 | 2.64 | 2.56 | 2.01 | 1.85 | 2.4

[2]
Settings | CTG-3D luminescence at 96 h
12.5 pM | 2.4
0.00025 µM | 2.42
0.005 µM | 2.09
0.1 µM | 2.42
1 µM | 1.9
10 µM | 1.54
100 µM | 1.41
625 fM | 2.03

CCN(c1cc(C#CCN2CCOCC2)cc(C(=O)NCc2c(C)cc(C)[nH]c2=O)c1C)[C@H]1CC[C@H](N(C)CCOC)CC1
CTG-3D luminescence at 96 h
Settings | 12.5 pM | 0.00025 µM | 0.005 µM | 0.1 µM | 1 µM | 10 µM | 100 µM | 625 fM
[1], days in culture: 240 | 1.66 | 1.2 | 1.34 | 1.12 | 1.48 | 1.35 | 1.6 | 1.15
[1], days in culture: 260 | 2.3 | 1.19 | 2.11 | 1.83 | 1.85 | 1.89 | 1.19 | 1.77
[1], days in culture: 269 | 1.6 | 1.57 | 1.22 | 1.27 | 1.24 | 1.91 | 1.29 | 1.58
[1], days in culture: 327 | 2.1 | 1.96 | 2.09 | 1.94 | 1.79 | 1.53 | 2.14 | 2.05
[1], days in culture: 346 | 1.71 | 1.33 | 1.21 | 1.4 | 1.5 | 1.62 | 1 | 1.32
[1], days in culture: 364 | 1.74 | 1.34 | 1.76 | 1.19 | 1.17 | 1.85 | 1.41 | 1.88
[3], days in culture: 143 | 1.91 | 2.56 | 2.37 | 2.99 | 3.02 | 3.17 | 0.606 | 1.86
[3], days in culture: 162 | 2.51 | 2.39 | 1.97 | 2.73 | 2.39 | 3.19 | 1.69 | 2.39
[3], days in culture: 201 | 2.85 | 2.09 | 1.92 | 2.18 | 2.33 | 1.83 | 2.37 | 1.64
[4], days in culture: 105 | 1.44 | 1.62 | 1.27 | 1.53 | 1.77 | 2.22 | 1.53 | 1.42
[4], days in culture: 122 | 1.71 | 2.29 | 2.04 | 1.85 | 2.34 | 3.46 | 1.5 | 2.18
[4], days in culture: 163 | 1.65 | 2.26 | 1.77 | 2.62 | 2.29 | 2.35 | 1.91 | 1.9
[5], days in culture: 176 | 2.06 | 2.13 | 3.35 | 1.65 | 1.87 | 2.06 | 1.32 | 2.38
[5], days in culture: 194 | 2.66 | 1.86 | 2.09 | 2.1 | 2.03 | 2.21 | 2.02 | 1.98
[5], days in culture: 201 | 3.28 | 3.2 | 2.92 | 2.89 | 3.09 | 2.64 | 2.22 | 2.42

[2]
Settings | CTG-3D luminescence at 96 h
12.5 pM | 1.84
0.00025 µM | 2.12
0.005 µM | 1.71
0.1 µM | 1.96
1 µM | 1.74
10 µM | 1.89
100 µM | 0.658
625 fM | 1.65
